Measurements from patent publication US20090004261A1, “PHARMACEUTICAL COMPOSITION FOR ORAL ADMINISTRATION OF A PYRAZOLE-3-CARBOXAMIDE DERIVATIVE” (Sanofi-aventis, priority 2003, published 2009).
Values after ≈ are worked out from the molar mass of the structure shown.

How the values were obtained:
[1] = Membrane permeability coefficient on the CaCO2 cell model; format: in vitro ADME; conditions: human, Caco-2
Description: (§1) These compounds are molecules that are very sparingly soluble in water, respectively: 0.1 μg/ml and 1 μg/l at pH=6.5. Furthermore, these compounds have high membrane permeability coefficients: respectively, 78×10^−7 cm/s and 96×10^−7 cm/s on the CaCO2 cell model, as described by M. C. Gres et al. in Pharmaceutical Research, […], 15(5), 726-7333.

[2] = Solubility in water; format: physicochemical; conditions: pH=6.5
Description: as §1

Row | SMILES | Papp [1] | solubility [2]
1 | CCc1c(C(=O)NN2CCCCC2)nn(-c2ccc(Cl)cc2Cl)c1-c1ccc(Br)cc1 [Compound A, N-Piperidino-5-(4-bromophenyl)-1-(2,4-dichlorophenyl)-4-ethylpyrazole-3-carboxamide] | 7.8 ×10⁻⁶ cm/s | 0.1 µg/mL (≈ 0.191 µM)
2 | Cc1c(C(=O)NN2CCCCC2)nn(-c2ccc(Cl)cc2Cl)c1-c1ccc(Cl)cc1 [Compound B, N-Piperidino-5-(4-chlorophenyl)-1-(2,4-dichlorophenyl)-4-methylpyrazole-3-carboxamide, reference compound] | 9.6 ×10⁻⁶ cm/s | –
